Reference: ChEMBL document CHEMBL1201862, “PubChem BioAssay data set” (2004)
The source made the active and inactive calls.

How the values were obtained:
[1] = target: Eukaryotic translation initiation factor 4E (Mus musculus, UniProt P63073); experiment: blockers of eIF4G binding by eIF4E – biochemical, TR-FRET, dose response (AID 855); format: functional;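 note: potency for disrupting eIF4E binding to eIF4GI seen as loss of FRET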
[2] = A cytotoxicity screen of small molecule inhibitors of the PhoP region in Salmonella typhi identified in the primary screen. [Related pubchem assays: 1850, 1864, 1985 ]; format: functional
[3] = test system: Streptococcus sp. 'group A'; experiment: Streptococcus pyogenes SK(-)GAS viability under kanamycin – luminescence, BacTiterGlo, confirmation, counter-screen for streptokinase expression inhibitor project, dose response (AID 1900); format: functional, organism-based
[4] = target: T1, Heat shock factor protein 1 (Mus musculus, UniProt P38532); experiment: decrease of HSF1-responsive luciferase luminescence – cell-based, NIH3T3, dose retest, confirmation (AID 2382); format: functional;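 note: NIH3T3 fibroblasts with HSF1-driven luciferase reporter stressed by proteasome inhibitor MG132; luminescence from HSF1-driven luciferase expression after 8 hours of MG132 stress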
T1 sequence (P38532 whole entry): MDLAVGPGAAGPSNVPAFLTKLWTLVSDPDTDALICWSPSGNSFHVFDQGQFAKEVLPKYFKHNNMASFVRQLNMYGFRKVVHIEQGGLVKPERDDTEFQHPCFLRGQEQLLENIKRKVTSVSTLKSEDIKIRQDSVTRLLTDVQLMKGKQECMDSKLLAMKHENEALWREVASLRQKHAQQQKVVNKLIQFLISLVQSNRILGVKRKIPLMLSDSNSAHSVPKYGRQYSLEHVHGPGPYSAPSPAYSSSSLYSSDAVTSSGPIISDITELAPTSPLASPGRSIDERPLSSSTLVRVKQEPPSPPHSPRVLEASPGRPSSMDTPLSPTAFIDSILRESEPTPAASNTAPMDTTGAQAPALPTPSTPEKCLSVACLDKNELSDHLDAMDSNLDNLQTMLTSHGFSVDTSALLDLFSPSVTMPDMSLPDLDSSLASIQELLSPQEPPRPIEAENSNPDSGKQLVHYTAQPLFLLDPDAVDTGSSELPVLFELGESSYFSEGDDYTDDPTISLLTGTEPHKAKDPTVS

[5] = Trypanosoma cruzi growth suppression in host cells – NIH3T3 host cells, beta-gal luminescence, confirmation (AID 2044); format: functional, cell-based;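 note: intracellular parasites grown in NIH/3T3 mouse fibroblasts as host cells; luminescent beta-galactosidase reporter signal from transgenic T. cruzi replicating inside host cells; inhibitors lower the luminescence signal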
[6] = NIH3T3 cell viability loss – ATP luminescence, mouse fibroblasts, counter-screen, dose response (AID 2010); format: functional, cell-based;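 note: cells exposed to compound for about 90 hours before reading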
[7] = test system: Streptococcus; experiment: GAS UMAA2166 growth inhibition – luminescence, BacTiterGlo, counter-screen for streptokinase expression inhibitor project, dose response (AID 1915); format: functional, organism-based;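 note: potency for reduction of bacterial viability or growth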
[8] = target: T2, NADPH oxidase 1 (Homo sapiens, UniProt Q9Y5S8); format: functional, cell-based;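 note: Cell-based assay with luminescence read-out, IC50 derived from inhibitor dose-response curves; intracellular ROS from endogenous NOX1 in intact HT29 colon cancer cells; potency of inhibitors that lower the ROS luminescence signal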
T2 sequence (Q9Y5S8 whole entry): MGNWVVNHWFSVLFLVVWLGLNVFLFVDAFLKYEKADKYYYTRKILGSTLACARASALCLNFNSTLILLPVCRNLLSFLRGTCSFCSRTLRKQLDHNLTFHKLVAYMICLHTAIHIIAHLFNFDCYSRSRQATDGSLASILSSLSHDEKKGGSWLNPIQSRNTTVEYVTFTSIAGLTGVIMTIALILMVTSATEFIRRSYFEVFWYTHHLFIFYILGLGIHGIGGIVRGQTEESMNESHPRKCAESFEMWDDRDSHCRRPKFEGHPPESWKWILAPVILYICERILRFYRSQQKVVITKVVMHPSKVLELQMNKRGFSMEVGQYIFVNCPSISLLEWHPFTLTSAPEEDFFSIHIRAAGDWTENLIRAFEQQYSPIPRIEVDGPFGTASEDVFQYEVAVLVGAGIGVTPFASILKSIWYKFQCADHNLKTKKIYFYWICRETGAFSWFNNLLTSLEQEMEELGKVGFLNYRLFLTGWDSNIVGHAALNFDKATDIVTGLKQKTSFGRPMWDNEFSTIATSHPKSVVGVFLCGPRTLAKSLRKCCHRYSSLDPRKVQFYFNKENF

[9] = target: T3, Genome polyprotein (Hepatitis C virus, UniProt Q2Q167); experiment: disruption of hepatitis C core self-association – biochemical, TR-FRET, dose response (AID 2159); parameters: species or system Hepacivirus hominis;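 note: blocks dimerization of HCV core protein measured by TR-FRET between tagged core106 pairs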
T3 sequence (Q2Q167 whole entry): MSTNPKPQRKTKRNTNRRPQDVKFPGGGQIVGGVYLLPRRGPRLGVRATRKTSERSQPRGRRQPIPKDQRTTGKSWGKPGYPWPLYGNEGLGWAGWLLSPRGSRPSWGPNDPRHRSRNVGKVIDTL

[10] = target: T4, CAAX prenyl protease 2 (Saccharomyces cerevisiae S288c, UniProt Q03530); format: biochemical
T4 sequence (Q03530 whole entry): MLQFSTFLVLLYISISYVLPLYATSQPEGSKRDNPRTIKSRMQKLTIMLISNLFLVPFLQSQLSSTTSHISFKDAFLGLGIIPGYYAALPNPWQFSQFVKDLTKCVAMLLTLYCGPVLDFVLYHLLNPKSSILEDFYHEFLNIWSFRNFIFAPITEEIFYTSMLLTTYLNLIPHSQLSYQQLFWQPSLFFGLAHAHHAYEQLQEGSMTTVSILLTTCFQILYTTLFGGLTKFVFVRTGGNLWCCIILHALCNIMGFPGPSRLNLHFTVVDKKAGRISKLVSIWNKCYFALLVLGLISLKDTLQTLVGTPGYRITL

[11] = viability of uninfected HEp-2 cells – cell-based, HTS, cytotoxicity control for RSV inhibitor project, dose response (AID 2410); format: functional; details: human respiratory syncytial virus
[12] = cells
[13] = target: Prothrombin (Homo sapiens, UniProt P00734); experiment: Thrombin 1536 HTS Dose Response Confirmation. [Related pubchem assays: 1046 (Thrombin 1536 HTS; hits were confirmed in this assay)]; format: functional
[14] = viability inhibitors of stage V gametocytes – luminescence, dose response (AID 1117278); format: functional, cell-based;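 note: gametocytes exposed to compound for 24 hours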
[15] = viability loss in human Jurkat cells – cell-based, luminescence, cytotoxicity control for P. falciparum gametocyte viability project, dose response (AID 1117277); format: functional;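 note: potency reflects loss of cellular ATP meaning fewer viable cells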
[16] = target: Heat shock protein HSP 90-alpha (Homo sapiens, UniProt P07900); format: functional, organism-based
[17] = test system: INS1; experiment: INS-1E survival protection against cytokine death – cell-based, luminescence, retest, dose response (AID 449756); format: functional; details: Rattus norvegicus;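 note: cell death triggered by IL-1 beta plus TNF-alpha plus IFN-gamma mixture; protective hits raise ATP signal compared with cytokine alone wells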
[18] = rise of 2N DNA cells, HeLa – IC50, dose response (AID 1117349); format: functional, cell-based
[19] = CellTiter-Glo luminescence survival assay, SW480 colon tumor line, concentration-response curve, half-maximal inhibitory concentration (AID 1117338); format: functional
[20] = RKO cell viability reduction, dose response, CellTiter-Glo luminescence (AID 1117322); format: functional
[21] = cytotoxicity toward HCT116 cells – cell-based, CellTiter-Glo luminescence, IC50, dose response (AID 1117332); format: functional; details: HCT-116
[22] = SNU-C1 cell viability reduction, dose response, CellTiter-Glo luminescence (AID 1117323); format: functional, cell-based
[23] = cytotoxicity toward Colo320 cells – cell-based, CellTiter-Glo luminescence, IC50, dose response (AID 1117334); format: functional; details: COLO 320
[24] = rise of 4N DNA cells, HeLa – IC50, dose response (AID 1117351); format: functional, cell-based
[25] = Reduced DLD-1 viability, concentration-response, CellTiter-Glo luminescence (AID 1117352); format: functional
[26] = HCT116 cell viability decrease, GSK3B pretreatment – CellTiter-Glo, IC50, dose response (AID 1117339); format: functional; details: HCT-116
[27] = target: T5, Cytochrome P450 1A2 (Homo sapiens, UniProt P05177);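 note: PubChem cytochrome P450 panel assay, CYP1A2 panel member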
T5 sequence (P05177 whole entry): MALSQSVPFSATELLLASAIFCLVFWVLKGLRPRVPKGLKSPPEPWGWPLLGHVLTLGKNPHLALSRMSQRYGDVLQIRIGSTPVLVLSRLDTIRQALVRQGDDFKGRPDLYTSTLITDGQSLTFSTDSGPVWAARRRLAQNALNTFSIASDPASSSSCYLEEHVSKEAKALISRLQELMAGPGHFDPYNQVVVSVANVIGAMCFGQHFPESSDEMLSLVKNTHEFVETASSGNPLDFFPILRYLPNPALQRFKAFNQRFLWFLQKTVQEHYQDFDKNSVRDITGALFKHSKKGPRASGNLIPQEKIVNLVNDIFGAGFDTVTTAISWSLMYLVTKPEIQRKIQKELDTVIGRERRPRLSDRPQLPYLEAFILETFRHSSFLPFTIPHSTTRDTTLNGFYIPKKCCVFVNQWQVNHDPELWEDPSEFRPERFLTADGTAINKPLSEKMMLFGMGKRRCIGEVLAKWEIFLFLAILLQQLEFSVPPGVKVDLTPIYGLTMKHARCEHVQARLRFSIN

Sequence of Eukaryotic translation initiation factor 4E (P63073 whole entry): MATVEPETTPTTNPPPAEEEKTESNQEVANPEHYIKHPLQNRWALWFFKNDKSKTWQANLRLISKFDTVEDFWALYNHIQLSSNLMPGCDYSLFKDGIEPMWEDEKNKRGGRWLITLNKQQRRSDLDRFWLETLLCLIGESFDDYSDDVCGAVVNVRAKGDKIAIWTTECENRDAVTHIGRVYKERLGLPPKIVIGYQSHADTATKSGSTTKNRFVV

CCOc1ccccc1OCc1nn2c(COc3ccccc3)nnc2s1
IC50 [1]: > 64 µM (inactive)

CCc1cccc2c(C(=O)COC(=O)c3ccc([N+](=O)[O-])s3)c[nH]c12
EC50 [2]: > 50 µM (active)
EC50 [3]: 0.497 µM (active)
EC50 [4]: 7.75 µM (active)
EC50 [5]: 0.739 µM (active)
EC50 [6]: > 30 µM (not active)
EC50 [7]: 1.03 µM (active)

O=C(Oc1ccc(Cl)cc1)c1sc2ccccc2c1Cl
IC50 [8]: > 17 µM (not active)

COc1cccc(NC(=O)CN(C)C(=O)c2cc3c(s2)CCC3)c1
IC50 [9]: > 49.8 µM (not active)

O=C(/C=C/c1ccc(Br)o1)OCc1nc(O)c2sccc2n1
IC50 [9]: 18.2 µM (not active)

Cc1cc(=O)n2ccccc2c1C#N
AC50 [10]: 24.9 µM (active)

Cn1c2ccccc2c(=O)c2c(=O)n(Cc3ccco3)c(COc3ccccc3)nc21
CC50 [11]: 32.8 µM (active)
EC50 [5]: 0.123 µM (active)
EC50 [6]: > 60 µM (not active)
IC50 [12]: 21.2 µM (active)

O=C(O)c1cc(-c2ccc(/C=C3/SC(=S)N(Cc4ccccc4)C3=O)o2)ccc1Cl
IC50 [1]: 15.1 µM (active)

CC(=O)Nc1ccc(-c2nc(-c3ccccc3)c(-c3ccccc3)[nH]2)cc1
IC50 [8]: > 17 µM (not active)

COc1ccc(-c2nc(-c3ccc(OC)cc3)c(-c3ccc(OC)cc3)[nH]2)cc1
IC50 [8]: > 17 µM (not active)

O=C(CSc1nc2ncnc-2c(O)[nH]1)NC1CCCCC1
IC50 [13]: > 50 µM (not active)

Cc1ccc(CN2CCN(Cc3ccc(-n4cccn4)cc3)CC2CCO)cc1 (stereo not drawn)
IC50 [14]: > 109 µM (inactive)
IC50 [15]: > 83.4 µM (inactive)

Cc1cc(C2CCCCC2)n(O)c(=O)c1 [CICLOPIROX OLAMINE]
AC50 [16]: < 0.195 µM (active)
AC50 [17]: 0.78 µM (active)
IC50 [18]: > 10 µM (inactive)
IC50 [19]: 0.469 µM (active)
IC50 [20]: 0.233 µM (active)
IC50 [21]: 0.656 µM (active)
IC50 [22]: > 20 µM (inactive)
IC50 [23]: 0.208 µM (active)
IC50 [24]: > 10 µM (inactive)
IC50 [25]: 0.316 µM (active)
IC50 [26]: 0.39 µM (active)
AC50 [27]: 15.8 µM (inconclusive)
